Measured values taken from US20260242349A1, “N,N'-SULFONIMIDAMIDES AS ANTICANCER, ANTIINFLAMMATORY, ANTIFIBROTIC AND NEUROPROTECTIVE AGENTS” (Atux Iskay LLC, priority 2023, published 2026).

Test system: D425 medulloblastoma cells
Assay: Cancer cell viability inhibition (CellTiter-Glo Luminescent Cell Viability Assay)
Format: cell-based
Conditions: 48 hours treatment, CellTiter-Glo luminescence, test range 1-30 uM, read-out: IC50 for D425 cell growth
Procedure: D425 medulloblastoma cells were purchased from SigmaAldrich. D425 meduloblastoma cells were cultured in improved Dulbecco's modified Eagle's medium (DMEM) Richter's modification supplemented with 20% fetal bovine serum and 1% Penicillin-streptomycin. Incubation was performed at 37° C. and 5% CO2.
D425 cells were seeded at 3000-3500 cells/90 ul growth medium per well on 96-well tissue culture plates. Cells were incubated overnight to allow them to recover. Next day cells were treated with tested compounds and incubated for 48 hours.
Cell Proliferation assays in triplicate were performed at each concentration. Compounds test range was 1-30 uM (0, 5, 10, 15, 20, 25, and 30). The compounds were dissolved in DMSO. […]
After treatment, cells were allowed to equilibrate at room temperature for one hour. Cell proliferation was measured by Luminescence quantification using Promega CellTiter-Glo Luminescent Cell Viability Assay. […] Luminescence intensity was measured using the Spectramax i3× plate reader.
The Luminescence intensity data were analyzed using the computer software Graphpad Prism. In the absence of the compound, the luminescence intensity (Lt) in each data set was defined as 100% cell viability. The percent cell in the presence of each compound was calculated according to the following equation: % Cell=L/Lt, were L=the luminescence intensity in the presence of the compound. […]

IC50: 9.4 µM
Structure (SMILES): N=S(=O)(Nc1ccc(OC(F)(F)F)cc1)N1CCCC(C2c3ccccc3CCc3ccccc32)C1 (stereo not shown) [Example 2]
